Source: US9475778B2, “Sulfate of 5-hydroxy-1H-imidazole-4-carboxamide” (FUJIFILM Corporation, priority 2013, dated 2016)

Assays:
Assay type in all cases: physicochemical
[1] = Storage stability test (3) under conditions of 60° C. and relative humidity of 75% (mass change, color appearance); settings: relative humidity 75%, 2 weeks; for Mass change ratio (%): glass bottle, {(A1−A0)/A0}×100
Description: Storage Stability Test (3) Under Conditions of 60° C. and Relative Humidity of 75%
As test substances, the crystals obtained in Example 2 and Comparative Example 2 were chosen.
Each test substance (about 0.3 g) was put into a glass bottle, and stored under the conditions of 60° C. and relative humidity of 75% for 2 weeks, and then mass was measured. Mass change ratio of each test substance was calculated according to the following equation. Mass change ratio(%)={(A1−A0)/A0}×100 A0: Mass (g) of test substance before test A1: Mass (g) of test substance after test
Change of color appearance of the test substances was also visually evaluated.

[2] = Storage for 2 weeks under conditions of 25° C. and relative humidity of 97%; settings: relative humidity 97%
[3] = Storage stability test (2) under conditions of 60° C. and relative humidity of 75% (purity by HPLC); settings: relative humidity 75%, 2 weeks
Description: The purities are represented in terms of HPLC area %. The HPLC measurement was performed by using Prominence (Shimadzu) under the following conditions.
Storage Stability Test (2) Under Conditions of 60° C. and Relative Humidity of 75%
As a test substance, the crystals obtained in Example 1 were chosen.
The test substance (about 0.3 g) was put into a glass bottle, and stored under the conditions of 60° C. and relative humidity of 75% for 2 weeks. After completion of the test, purity of the substance was measured by HPLC.

[4] = Storage stability test (1) under conditions of 60° C. and relative humidity of 75% (coloring); settings: glass bottle, relative humidity 75%, 2 weeks, compared with crystals of Comparative Example 1
Description: Storage Stability Test (1) Under Conditions of 60° C. and Relative Humidity of 75%
As test substances, the crystals obtained in Examples 1 and 2 and Comparative Example 1 were chosen.
Each test substance (about 0.3 g) was put into a glass bottle, and stored under the conditions of 60° C. and relative humidity of 75% for 2 weeks.

| Compound | Mass change ratio (%) [1] | appearance change after storage [2] | purity of the test substance after storage (HPLC) ([3]; glass bottle, HPLC area %) [%] | coloring after storage [4] | purity after storage (in words) ([3]; evaluated in the same manner as Test Example 2) | Change of color appearance ([1]; visually evaluated) |
| --- | --- | --- | --- | --- | --- | --- |
| CS(=O)(=O)O.NC(=O)c1nc[nH]c1O [Comparative Example 2, Methanesulfonate of 5-hydroxy-1H-imidazole-4-carboxamide, reference compound] | +16.2% | deliquesced |  |  |  |  |
| NC(=O)c1nc[nH]c1O.O=S(=O)(O)O [Example 1, sulfate of 5-hydroxy-1H-imidazole-4-carboxamide] |  |  | 99.97 |  |  |  |
| NC(=O)c1nc[nH]c1O.O=S(=O)(O)O [Example 2, sulfate of 5-hydroxy-1H-imidazole-4-carboxamide] | −0.1% | did not show appearance change |  | coloring in an obviously lower degree | high purity even after the storage for 2 weeks | No change (white) |
